Assay results published in patent US12319652B2, “Salts and solid forms of (R)-1-(5-methoxy-1H-indol-1-yl)-N,N-dimethylpropan-2-amine” (priority 2021, dated 2025).

What was measured:
[1] = Solubility determinations in SIF buffers (FaSSIF, FeSSIF, FaSSGF); format: physicochemical
Method: At this stage ca. 1 g of each front-runner salt form was prepared. Salt forms that offered significant solubility and stability advantages over the non-ionized API were prioritized. […] Scale Up
The solubility of the salts below was determined in FaSSIF, FeSSIF and FaSSGF by reference to the calibration curve of amorphous compound 1.
Separate portions of compound 1 were weighed out into aluminum boats and were charged to the relevant volumetric flasks. Solutions were made to volume with 1 to 1 (v/v) acetonitrile/purified water to give calibrants of known API concentrations and analyzed by HPLC, suitable to determine the concentration of compound 1 free base in the SIF buffer solubility study.
Each sample (150 mg) was suspended in the relevant SIF buffer (5.0 ml), to give a concentration of 30 mg/ml and maintain at 37° C. for 24 h. The pH was adjusted using 1 M HCl or 1 M NaOH, to ensure that the suspension remains in range.
Sample (1 ml) of the well-stirred representative suspensions was obtained at 1 h, 3 h, 6 h and 24 h and the pH was recorded. The pH of the bulk suspension was re-adjusted when necessary. The obtained sample from each vial was centrifuged, and the supernatant was analysed by HPLC (note, the analyte was diluted, when outside of the calibration range); XRPD analysis was performed on the wet sample pellet for evidence of form change, as well as on the oven-dried pellet (undervacuum at 40° C.).

[2] = Dynamic vapor sorption (DVS); format: physicochemical
Method: There are two main methods to use, one is by time where the equilibration is given by a fixed time, i.e., 1 hour per step and is appropriate for an unknown phase. The second, is by mass per time unit (dm/dt) of 0.002%/min; that is when the difference in weight is less than 0.002%, the instrument moves onto the next step. For unknown hygroscopicity, the method by time is indicated because it gives an idea of water affinity without wasting much time. Ideally the analyses are repeated using the mass equilibration method to confirm. By experience for hygroscopic samples, the analysis can continue for days. For non-hygroscopic samples the difference between the two methods may not be significant.
Consequently, amorphous batch 1 was analyzed by the fixed time method and once compound 1 fumarate crystalline polymorphic Form A was generated the analyses was repeated as mass per unit time equilibrated @dm/dt ([…]) and is given below (refer to FIG. 12).
(§1) The moisture sorption properties of the feed API were analysed by DVS Intrinsic instrument (Surface Measurement System). Approximately 20 to 50 mg of API was weighed onto an aluminium pan and loaded into the instrument equilibrated at 25° C. The sample was equilibrated under a dry atmosphere (0% relative humidity) for 60 minutes, before increasing the humidity from 0% to 30% at 5%4 step increment and from 30% to 90% at 10% step increment. A desorption cycle was also applied from 90% to 30% (10% step decrement) and from 30% to 0% (5% step decrement). A rate of change in mass per time unit (dm/dt) of 0.002%/min was set as the equilibrium parameter. Kinetic and isotherm graphs were calculated.
Specimens were equilibrated at 0% RH for 60 min, prior to DVS analyses (stepped increment % RH up to 90% RH and stepped decrement % RH down to 0% RH.
as §1, with “5%” for “5%4”

[3] = format: physicochemical; conditions: 40° C./75% RH, 10-day time point
Method: Equilibrium Humidity Evaluation (40° C./75% RH for 10 Days)
100 mg portions of compound 1 salts (for inputs see table below) were placed in the relevant open vials. The powders were finely divided and distributed evenly over the base of the vial, such that equal material coverage across the panel was observed. These samples were then maintained 40°C. under 75% RH. The samples were sub-sampled at intervals of 5 and 10 days and analysed by ^1H NMR, HPLC, XRPD, DSC, TGA and PLM, for evidence of phase change or chemical degradation (FIG. 269-297).

[4] = FaSSGF (ph 1.6), t = 1 h@37° C.
[5] = FaSSGF (ph 1.6), t = 3 h@37° C.
[6] = FaSSGF (ph 1.6), t = 6 h@37° C.
[7] = FaSSGF (ph 1.6), t = 24 h @37° C.
[8] = FaSSIF (ph 6.5), t = 1 h@37° C.
[9] = FaSSIF (ph 6.5), t = 3 h@37° C.
[10] = FaSSIF (ph 6.5), t = 6 h@37° C.
[11] = FaSSIF (ph 6.5), t = 24 h @37° C.
[12] = FeSSIF (ph 5.0), t = 1 h@37° C.
[13] = FeSSIF (ph 5.0), t = 3 h@37° C.
[14] = FeSSIF (ph 5.0), t = 6 h@37° C.
[15] = FeSSIF (ph 5.0), t = 24 h @37° C.

COc1ccc2c(ccn2C[C@@H](C)N(C)C)c1.O=C(O)/C=C/C(=O)O [Compound 1 · Fumarate]
Solubility [1, 4]: >30 mg/mL | Solubility [1, 5]: >30 mg/mL | Solubility [1, 6]: >30 mg/mL | Solubility [1, 7]: >30 mg/mL | Solubility [1, 8]: >30 mg/mL | Solubility [1, 9]: >30 mg/mL | Solubility [1, 10]: >30 mg/mL | Solubility [1, 11]: >30 mg/mL | Solubility [1, 12]: >30 mg/mL | Solubility [1, 13]: >30 mg/mL | Solubility [1, 14]: >30 mg/mL | Solubility [1, 15]: >30 mg/mL

COc1ccc2c(ccn2C[C@@H](C)N(C)C)c1.O=C(O)/C=C\C(=O)O [Compound 1 · Maleate]
Solubility [1, 4]: >30 mg/mL | Solubility [1, 5]: >30 mg/mL | Solubility [1, 6]: >30 mg/mL | Solubility [1, 7]: >30 mg/mL | Solubility [1, 8]: >30 mg/mL | Solubility [1, 9]: >30 mg/mL | Solubility [1, 10]: >30 mg/mL | Solubility [1, 11]: >30 mg/mL | Solubility [1, 12]: >30 mg/mL | Solubility [1, 13]: >30 mg/mL | Solubility [1, 14]: >30 mg/mL | Solubility [1, 15]: >30 mg/mL

COc1ccc2c(ccn2C[C@@H](C)N(C)C)c1.O=C(O)c1ccccc1 [compound 1 benzoate]
DVS isotherm type / hygroscopicity ([2]; 0 to 90 to 0% RH): hygroscopic | DVS 0 to 90 to 0% RH (dm/dt <0.002%) ([2]; 5.0% RH, desorption): -0.39% | DVS 0 to 90 to 0% RH (dm/dt <0.002%) ([2]; 5.0% RH, sorption): 0.02% | DVS 0 to 90 to 0% RH (dm/dt <0.002%) ([2]; 10.0% RH, desorption): −0.34% | DVS 0 to 90 to 0% RH (dm/dt <0.002%) ([2]; 10.0% RH, sorption): 0.04% | DVS 0 to 90 to 0% RH (dm/dt <0.002%) ([2]; 15.0% RH, desorption): -0.29% | DVS 0 to 90 to 0% RH (dm/dt <0.002%) ([2]; 15.0% RH, sorption): 0.06% | DVS 0 to 90 to 0% RH (dm/dt <0.002%) ([2]; 20.0% RH, desorption): −0.25% | DVS 0 to 90 to 0% RH (dm/dt <0.002%) ([2]; 20.0% RH, sorption): 0.10% | DVS 0 to 90 to 0% RH (dm/dt <0.002%) ([2]; 25.0% RH, desorption): −0.19% | DVS 0 to 90 to 0% RH (dm/dt <0.002%) ([2]; 25.0% RH, sorption): 0.10% | DVS 0 to 90 to 0% RH (dm/dt <0.002%) ([2]; 30.0% RH, desorption): -0.16% | DVS 0 to 90 to 0% RH (dm/dt <0.002%) ([2]; 30.0% RH, sorption): 0.13% | DVS 0 to 90 to 0% RH (dm/dt <0.002%) ([2]; 40.0% RH, desorption): −0.19% | DVS 0 to 90 to 0% RH (dm/dt <0.002%) ([2]; 40.0% RH, sorption): 0.19% | DVS 0 to 90 to 0% RH (dm/dt <0.002%) ([2]; 50.0% RH, desorption): 0.20% | DVS 0 to 90 to 0% RH (dm/dt <0.002%) ([2]; 50.0% RH, sorption): 0.30% | DVS 0 to 90 to 0% RH (dm/dt <0.002%) ([2]; 60.0% RH, desorption): 0.41% | DVS 0 to 90 to 0% RH (dm/dt <0.002%) ([2]; 60.0% RH, sorption): 0.42% | DVS weight gain at 70% RH ([2]; 70% RH (printed 70° RH in Example 8)): ca. 0.6 % w/w | DVS 0 to 90 to 0% RH (dm/dt <0.002%) ([2]; 70.0% RH, desorption): 0.61% | DVS 0 to 90 to 0% RH (dm/dt <0.002%) ([2]; 70.0% RH, sorption): 0.58% | DVS 0 to 90 to 0% RH (dm/dt <0.002%) ([2]; 80.0% RH, desorption): 0.92% | DVS 0 to 90 to 0% RH (dm/dt <0.002%) ([2]; 80.0% RH, sorption): 0.89% | DVS 0 to 90 to 0% RH (dm/dt <0.002%) ([2]; 90.0% RH, desorption): 1.52% | DVS 0 to 90 to 0% RH (dm/dt <0.002%) ([2]; 90.0% RH, sorption): 1.52% | DVS desorption behaviour (hysteresis) ([2]; during desorption): desorption profile was unusual and ended beneath unity | Disproportionation in FaSSGF ([1]; 1H NMR of isolated residue, non-ionised benzoic acid present): disproportionated | Observation upon pH adjustment from 4.17 to 1.63 ([1]; SIF buffer solubility study): solid was observed | Change of purity profile / CP [3]: little changed
